These results are taken from ChEMBL document CHEMBL1201862, “PubChem BioAssay data set” (2004).

Activity calls are given as the source filed them. Where only a bound is given, the exact number is not on record here.

In assay [1] the target is Peroxisome proliferator-activated receptor gamma/Nuclear receptor coactivator 3 (Homo sapiens, UniProt P37231). It counts as functional.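 Also: agonist potency for raising coactivator recruitment to the receptor.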
The target in assay [2] is Induced myeloid leukemia cell differentiation protein Mcl-1 (Homo sapiens, UniProt Q07820). It counts as functional.
Sequence of Induced myeloid leukemia cell differentiation protein Mcl-1 (Q07820 whole entry): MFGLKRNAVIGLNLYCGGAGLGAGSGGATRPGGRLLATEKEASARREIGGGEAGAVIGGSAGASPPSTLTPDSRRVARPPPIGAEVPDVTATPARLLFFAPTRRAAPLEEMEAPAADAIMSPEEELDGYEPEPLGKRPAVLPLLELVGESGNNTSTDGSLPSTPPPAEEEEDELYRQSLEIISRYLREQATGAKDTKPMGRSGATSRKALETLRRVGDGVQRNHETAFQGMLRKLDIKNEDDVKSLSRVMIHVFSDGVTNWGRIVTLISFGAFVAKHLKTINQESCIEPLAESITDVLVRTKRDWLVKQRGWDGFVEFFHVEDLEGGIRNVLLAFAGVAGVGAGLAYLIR
A further assay deals with Beta-arrestin-1 (Homo sapiens, UniProt P49407). Put plainly: inhibitors of arrestin peptide binding to AP2, dose response, biochemical, cherry pick 1, beta2-adaptin appendage, flow cytometry (AID 588783). The assay is classed as functional. In general terms: A flow cytometer gives signals particle by particle.
Sequence of Beta-arrestin-1 (P49407 whole entry): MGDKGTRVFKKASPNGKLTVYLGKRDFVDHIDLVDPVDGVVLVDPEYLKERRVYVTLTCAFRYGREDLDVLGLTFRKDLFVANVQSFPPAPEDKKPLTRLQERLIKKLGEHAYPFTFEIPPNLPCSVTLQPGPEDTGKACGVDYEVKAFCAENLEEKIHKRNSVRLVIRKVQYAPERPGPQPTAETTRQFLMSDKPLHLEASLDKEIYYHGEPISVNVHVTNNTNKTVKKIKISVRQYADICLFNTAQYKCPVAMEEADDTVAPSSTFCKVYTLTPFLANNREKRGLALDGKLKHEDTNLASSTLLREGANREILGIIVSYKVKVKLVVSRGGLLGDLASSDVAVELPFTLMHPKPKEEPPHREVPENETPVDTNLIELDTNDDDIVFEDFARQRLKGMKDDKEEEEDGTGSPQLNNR
The target in assay [3] is T1, Mannose-6-phosphate isomerase (Homo sapiens, UniProt P34949).
T1 sequence (P34949 whole entry): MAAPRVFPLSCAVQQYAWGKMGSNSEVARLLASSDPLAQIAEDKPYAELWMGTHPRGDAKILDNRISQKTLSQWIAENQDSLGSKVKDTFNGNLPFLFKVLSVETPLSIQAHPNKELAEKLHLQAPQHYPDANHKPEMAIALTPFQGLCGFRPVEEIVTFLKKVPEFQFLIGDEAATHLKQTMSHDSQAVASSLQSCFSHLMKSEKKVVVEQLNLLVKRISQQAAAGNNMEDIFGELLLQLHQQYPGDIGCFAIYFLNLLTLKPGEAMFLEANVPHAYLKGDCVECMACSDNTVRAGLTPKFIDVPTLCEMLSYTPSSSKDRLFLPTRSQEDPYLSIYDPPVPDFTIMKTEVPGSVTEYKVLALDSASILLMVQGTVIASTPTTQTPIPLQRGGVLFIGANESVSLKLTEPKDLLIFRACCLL
Put plainly: human PMI inhibitors, high substrate, primary screen, biochemical, fluorescence intensity, high mannose 6-phosphate (AID 1220).

Assay [4] in a line: Fluorescence-based cell-based high throughput dose response assay for inhibitors of the interaction of nucleotide-binding oligomerization domain containing 2 (NOD2) and the receptor-interacting serine-threonine kinase 2 (RIPK2). Particulars: Homo sapiens. It counts as functional.
The target in assay [5] is Hepatocyte nuclear factor 4-alpha (Homo sapiens, UniProt P41235). It counts as functional, cell-based.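 Also: biochemical luminescence-based dose-response counterscreen measuring inhibition of HNF4 dimerization, run alongside a screen for blockers of ABHD5–perilipin-5 interaction; split luciferase complementation of HNF4 fusion proteins in cell lysate measuring dimerization.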
Sequence of Hepatocyte nuclear factor 4-alpha (P41235 whole entry, the tested form may be a part): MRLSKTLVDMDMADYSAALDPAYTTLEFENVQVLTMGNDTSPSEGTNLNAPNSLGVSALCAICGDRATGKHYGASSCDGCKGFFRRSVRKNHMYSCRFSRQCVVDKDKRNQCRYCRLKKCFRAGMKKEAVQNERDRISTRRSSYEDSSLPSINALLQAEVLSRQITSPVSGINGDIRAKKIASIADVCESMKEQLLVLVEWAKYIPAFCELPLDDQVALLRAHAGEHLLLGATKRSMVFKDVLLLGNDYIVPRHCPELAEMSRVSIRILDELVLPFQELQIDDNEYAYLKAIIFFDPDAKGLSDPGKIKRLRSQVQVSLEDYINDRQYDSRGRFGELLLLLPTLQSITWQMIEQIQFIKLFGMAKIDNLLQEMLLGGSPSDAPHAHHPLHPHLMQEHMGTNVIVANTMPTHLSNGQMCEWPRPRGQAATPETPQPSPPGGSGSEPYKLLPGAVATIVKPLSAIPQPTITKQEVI
Assay [6] deals with T2, Sentrin-specific protease 8 (Homo sapiens, UniProt Q96LD8).
T2 sequence (Q96LD8 whole entry): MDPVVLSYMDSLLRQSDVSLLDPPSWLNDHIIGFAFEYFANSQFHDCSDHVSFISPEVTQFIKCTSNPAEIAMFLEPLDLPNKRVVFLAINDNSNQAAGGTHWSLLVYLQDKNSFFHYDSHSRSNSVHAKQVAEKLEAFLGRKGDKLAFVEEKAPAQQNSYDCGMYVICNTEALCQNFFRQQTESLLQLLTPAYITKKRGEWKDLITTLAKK
Put plainly: SENP8 protease inhibitors, SAR follow-up, biochemical, luminescence (AID 504501). The assay is classed as functional.

Assay [7] can be described thus: HepG2 cell cytotoxicity, dose response, cytotoxicity control, plate reader, cherry-pick, antagonist series (AID 743416). It counts as functional, cell-based.
Assay [8] has as its target T3, Oxysterols receptor LXR-beta (Homo sapiens, UniProt P55055).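 Also: Cell-based luminescence dose-response assay of agonist activity at LXR, run as a confirmatory counterscreen to a daf-12 agonist screen; HEK293 cells with Gal4-LXR fusion and GAL4-driven luciferase reporter; agonist potency from rising luciferase signal of a Gal4-LXR reporter.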
T3 sequence (P55055 whole entry): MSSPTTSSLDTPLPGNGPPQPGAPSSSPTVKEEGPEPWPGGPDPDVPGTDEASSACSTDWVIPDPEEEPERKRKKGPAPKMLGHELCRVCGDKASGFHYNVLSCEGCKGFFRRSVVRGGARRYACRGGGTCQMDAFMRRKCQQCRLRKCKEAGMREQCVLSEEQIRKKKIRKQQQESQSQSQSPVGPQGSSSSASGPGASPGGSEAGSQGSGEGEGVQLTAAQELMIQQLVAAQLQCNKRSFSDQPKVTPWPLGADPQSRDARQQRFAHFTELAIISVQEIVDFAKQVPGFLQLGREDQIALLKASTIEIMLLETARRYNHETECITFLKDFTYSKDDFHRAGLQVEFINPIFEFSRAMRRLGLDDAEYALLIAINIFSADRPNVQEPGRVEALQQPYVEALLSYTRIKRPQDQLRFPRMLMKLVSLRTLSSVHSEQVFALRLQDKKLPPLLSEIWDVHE
It counts as functional, cell-based.

Assay [9] concerns the target Serine/threonine-protein kinase PLK3 (Homo sapiens, UniProt Q9H4B4). It counts as functional.
The target of assay [10] is Serine/threonine-protein kinase TBK1 (Homo sapiens, UniProt Q9UHD2). Nature of the assay: Navigating the Kinome. Panel member name: TBK1. It counts as functional.
Sequence of Serine/threonine-protein kinase TBK1 (Q9UHD2 whole entry): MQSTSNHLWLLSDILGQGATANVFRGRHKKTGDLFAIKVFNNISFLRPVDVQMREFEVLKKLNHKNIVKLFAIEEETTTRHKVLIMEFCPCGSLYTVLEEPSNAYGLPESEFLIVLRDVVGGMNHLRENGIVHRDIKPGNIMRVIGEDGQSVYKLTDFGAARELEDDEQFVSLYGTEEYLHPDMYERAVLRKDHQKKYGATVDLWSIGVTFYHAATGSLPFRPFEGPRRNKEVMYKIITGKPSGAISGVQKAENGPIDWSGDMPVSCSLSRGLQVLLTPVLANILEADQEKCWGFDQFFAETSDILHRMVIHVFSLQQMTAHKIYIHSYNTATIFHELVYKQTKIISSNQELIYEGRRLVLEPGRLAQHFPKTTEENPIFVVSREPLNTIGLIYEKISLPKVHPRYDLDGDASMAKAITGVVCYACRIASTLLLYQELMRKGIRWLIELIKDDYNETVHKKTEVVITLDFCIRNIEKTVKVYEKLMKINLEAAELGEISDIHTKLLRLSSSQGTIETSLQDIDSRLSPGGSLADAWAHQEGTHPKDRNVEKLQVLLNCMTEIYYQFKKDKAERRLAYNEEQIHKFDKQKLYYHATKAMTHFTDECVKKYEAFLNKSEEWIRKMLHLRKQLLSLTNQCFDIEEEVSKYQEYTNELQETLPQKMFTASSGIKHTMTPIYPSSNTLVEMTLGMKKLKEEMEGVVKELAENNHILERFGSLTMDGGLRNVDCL
Assay [11] has as its target Serine/threonine-protein kinase D2 (Homo sapiens, UniProt Q9BZL6). The assay is classed as functional.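 Also: measured against PRKD2 as one member of a kinome-wide kinase profiling panel.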
Assay [12] addresses Ribosomal protein S6 kinase beta-1 (Homo sapiens, UniProt P23443). It counts as functional.
Assay [13] concerns the target Death-associated protein kinase 3 (Homo sapiens, UniProt O43293). The assay is classed as functional.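 Also: measured as one member of a kinome-wide profiling panel.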
For assay [14], the target named is Cyclin-dependent kinase 2 (Homo sapiens, UniProt P24941). It counts as functional.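 Also: CDK2 measured as one member of a broad kinome profiling panel.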
Assay [15] has as its target Serine/threonine-protein kinase pim-1 (Homo sapiens, UniProt P11309). It counts as functional.
Assay [16] addresses MAP/microtubule affinity-regulating kinase 3 (Homo sapiens, UniProt P27448). It counts as functional.
Assay [17] addresses Glycogen synthase kinase-3 alpha (Homo sapiens, UniProt P49840). The assay is classed as functional.
Assay [18] concerns the target Casein kinase I isoform delta (Homo sapiens, UniProt P48730). It counts as functional.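 Also: measured as one member (CSNK1D) of a kinome panel.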
Assay [19] has as its target MAP kinase-interacting serine/threonine-protein kinase 2 (Homo sapiens, UniProt Q9HBH9). It counts as functional.
In assay [20] the target is Mitogen-activated protein kinase 1 (Homo sapiens, UniProt P28482). The assay is classed as functional.
Sequence of Mitogen-activated protein kinase 1 (P28482 whole entry): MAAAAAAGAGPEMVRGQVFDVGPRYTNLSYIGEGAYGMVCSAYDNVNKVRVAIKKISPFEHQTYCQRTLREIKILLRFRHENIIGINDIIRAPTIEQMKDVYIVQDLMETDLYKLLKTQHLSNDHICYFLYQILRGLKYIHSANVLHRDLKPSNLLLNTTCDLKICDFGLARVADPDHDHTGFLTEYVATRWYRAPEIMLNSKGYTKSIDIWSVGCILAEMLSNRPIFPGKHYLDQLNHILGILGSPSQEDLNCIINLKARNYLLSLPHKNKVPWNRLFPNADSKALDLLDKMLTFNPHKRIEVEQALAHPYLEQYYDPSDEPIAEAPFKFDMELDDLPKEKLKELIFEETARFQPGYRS
In assay [21] the target is Dual specificity tyrosine-phosphorylation-regulated kinase 4 (Homo sapiens, UniProt Q9NR20). The assay is classed as functional.
Sequence of Dual specificity tyrosine-phosphorylation-regulated kinase 4 (Q9NR20 whole entry): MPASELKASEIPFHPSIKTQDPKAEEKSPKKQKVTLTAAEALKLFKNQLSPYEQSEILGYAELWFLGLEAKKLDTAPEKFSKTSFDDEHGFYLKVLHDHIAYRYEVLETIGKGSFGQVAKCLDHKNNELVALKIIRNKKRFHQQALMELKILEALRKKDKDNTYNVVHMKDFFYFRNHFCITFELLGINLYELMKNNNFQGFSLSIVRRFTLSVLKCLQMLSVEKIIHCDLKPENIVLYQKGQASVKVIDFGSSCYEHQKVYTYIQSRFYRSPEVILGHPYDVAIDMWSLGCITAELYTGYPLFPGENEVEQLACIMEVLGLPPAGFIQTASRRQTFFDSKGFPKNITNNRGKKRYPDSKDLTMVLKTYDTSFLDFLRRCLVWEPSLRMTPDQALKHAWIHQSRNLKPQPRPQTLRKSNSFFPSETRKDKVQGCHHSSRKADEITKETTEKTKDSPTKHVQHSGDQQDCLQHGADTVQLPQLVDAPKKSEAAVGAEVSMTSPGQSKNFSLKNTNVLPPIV
For assay [22], the target named is cAMP-dependent protein kinase catalytic subunit PRKX (Homo sapiens, UniProt P51817). The assay is classed as functional.
Sequence of cAMP-dependent protein kinase catalytic subunit PRKX (P51817 whole entry): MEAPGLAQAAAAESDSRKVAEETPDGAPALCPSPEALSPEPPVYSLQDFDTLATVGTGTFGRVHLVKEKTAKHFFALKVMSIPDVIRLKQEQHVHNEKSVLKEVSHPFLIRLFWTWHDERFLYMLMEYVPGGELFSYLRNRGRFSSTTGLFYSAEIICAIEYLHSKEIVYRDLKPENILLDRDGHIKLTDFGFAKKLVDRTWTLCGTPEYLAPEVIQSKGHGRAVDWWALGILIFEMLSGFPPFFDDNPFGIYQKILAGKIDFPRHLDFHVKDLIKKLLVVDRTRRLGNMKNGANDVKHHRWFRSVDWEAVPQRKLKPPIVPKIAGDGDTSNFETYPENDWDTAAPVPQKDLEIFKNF
Assay [23] addresses Serine/threonine-protein kinase MRCK alpha (Homo sapiens, UniProt Q5VT25). It counts as functional.
Assay [24] addresses Dual specificity tyrosine-phosphorylation-regulated kinase 1A (Homo sapiens, UniProt Q13627). The assay is classed as functional.
Assay [25] addresses Serine/threonine-protein kinase 3 (Homo sapiens, UniProt Q13188). The assay is classed as functional.
The target in assay [26] is G2/mitotic-specific cyclin-B1 (Homo sapiens, UniProt P14635). Put plainly: Counterscreen assay for inhibitors of Wee1 degradation: dose response cell-based assay to identify inhibitors of cyclin B degradation. [Related pubchem assays: 1410, 1321 ]. It counts as functional.
Assay [27] is described as follows: NIH-3T3 fibroblast cytotoxicity, dose response, cytotoxicity control, cell-based, fluorescence, Alamar Blue, secondary assay (AID 2327).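 Also: NIH-3T3 mouse fibroblasts cultured with fluconazole at 8 µg/mL.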 The assay is classed as functional. Background: Resazurin is reduced to fluorescent resorufin, in cell work by metabolically active cells.
Assay [28] deals with BJ. Nature of the assay: cytotoxicity toward BJ-TERT fibroblasts, dose response, cell-based, RAS-independent, luminescence (AID 1933). Particulars: Homo sapiens. It counts as functional.
In assay [29] the test system is BJ. Put plainly: cytotoxicity toward BJ-TERT-LT-ST fibroblasts, dose response, cell-based, RAS-independent, luminescence (AID 1935).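 Also: BJ fibroblasts immortalized with TERT plus LT and ST oncogenes.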 It counts as functional. Particulars: Homo sapiens.

Sequence of Serine/threonine-protein kinase 3 (Q13188 whole entry): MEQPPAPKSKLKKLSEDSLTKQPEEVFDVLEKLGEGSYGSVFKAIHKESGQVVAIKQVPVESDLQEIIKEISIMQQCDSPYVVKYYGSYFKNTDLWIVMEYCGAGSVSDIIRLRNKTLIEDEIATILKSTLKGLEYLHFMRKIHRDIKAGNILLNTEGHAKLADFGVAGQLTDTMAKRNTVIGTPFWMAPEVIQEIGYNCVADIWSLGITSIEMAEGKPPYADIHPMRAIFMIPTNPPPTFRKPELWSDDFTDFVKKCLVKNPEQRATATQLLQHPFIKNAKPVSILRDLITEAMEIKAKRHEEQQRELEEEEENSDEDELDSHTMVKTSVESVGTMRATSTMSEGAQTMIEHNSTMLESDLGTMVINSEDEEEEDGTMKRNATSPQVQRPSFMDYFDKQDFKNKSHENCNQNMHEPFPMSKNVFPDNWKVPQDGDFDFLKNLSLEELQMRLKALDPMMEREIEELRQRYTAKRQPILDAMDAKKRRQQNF
Sequence of Ribosomal protein S6 kinase beta-1 (P23443 whole entry): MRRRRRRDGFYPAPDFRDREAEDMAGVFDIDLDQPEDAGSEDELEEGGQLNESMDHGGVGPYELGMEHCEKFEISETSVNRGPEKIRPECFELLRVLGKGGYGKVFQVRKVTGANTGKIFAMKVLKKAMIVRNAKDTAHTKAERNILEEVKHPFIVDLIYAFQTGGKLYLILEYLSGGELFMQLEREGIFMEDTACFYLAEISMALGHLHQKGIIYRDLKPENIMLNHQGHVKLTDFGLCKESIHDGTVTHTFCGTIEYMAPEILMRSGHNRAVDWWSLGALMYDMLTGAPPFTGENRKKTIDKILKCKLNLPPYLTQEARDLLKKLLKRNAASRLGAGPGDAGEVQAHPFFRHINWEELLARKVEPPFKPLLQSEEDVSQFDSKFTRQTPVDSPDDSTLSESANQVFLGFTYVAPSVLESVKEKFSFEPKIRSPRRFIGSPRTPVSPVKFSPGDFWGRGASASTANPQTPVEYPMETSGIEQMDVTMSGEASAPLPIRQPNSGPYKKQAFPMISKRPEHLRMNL
Sequence of Casein kinase I isoform delta (P48730 whole entry, canonical isoform): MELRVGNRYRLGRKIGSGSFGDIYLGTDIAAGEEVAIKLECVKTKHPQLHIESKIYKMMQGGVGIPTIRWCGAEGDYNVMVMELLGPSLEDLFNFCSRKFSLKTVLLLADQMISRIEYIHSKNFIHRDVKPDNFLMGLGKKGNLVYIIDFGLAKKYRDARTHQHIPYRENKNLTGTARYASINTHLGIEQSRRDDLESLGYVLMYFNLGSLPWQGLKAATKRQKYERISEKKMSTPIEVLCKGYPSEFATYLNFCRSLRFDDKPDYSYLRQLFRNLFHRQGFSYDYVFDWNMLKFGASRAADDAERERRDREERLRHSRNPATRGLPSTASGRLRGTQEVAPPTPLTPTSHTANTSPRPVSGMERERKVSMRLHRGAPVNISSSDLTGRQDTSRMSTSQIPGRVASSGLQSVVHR
Sequence of Serine/threonine-protein kinase pim-1 (P11309 whole entry): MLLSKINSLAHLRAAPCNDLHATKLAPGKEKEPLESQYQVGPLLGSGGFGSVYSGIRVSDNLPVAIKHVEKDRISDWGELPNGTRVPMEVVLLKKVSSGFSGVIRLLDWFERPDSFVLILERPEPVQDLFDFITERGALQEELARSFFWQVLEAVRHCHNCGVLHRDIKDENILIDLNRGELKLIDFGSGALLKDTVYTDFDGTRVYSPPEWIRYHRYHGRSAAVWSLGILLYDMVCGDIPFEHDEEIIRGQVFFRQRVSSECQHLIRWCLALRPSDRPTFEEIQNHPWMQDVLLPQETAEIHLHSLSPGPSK

For the molecule `CN(C)c1ncc(C2=C(Cl)C(=O)C(N3CCCC3)=C(Cl)C2=O)s1`, the concentration for a half-maximal effect (EC50) – broadly, the midpoint of the concentration-response curve – in assay [1] was > 79.4 µM (not active). Moreover, the concentration for half-maximal inhibition (IC50) (usually the concentration that inhibits the measured activity by half) in assay [2] was 26.4 µM (active); at Beta-arrestin-1, 10.7 µM (active).

As to `Cc1ccc(C(=O)c2c(C)oc3c2C(=O)C(=O)c2ccccc2-3)cc1`, the figures for the half-maximal inhibitory concentration (IC50) in assay [3], in [4] and in [5] were > 50 µM (not active), 6.83 µM (active) and 5.42 µM (active), respectively.

For `Cc1cnc(NC(=O)c2sc3ccccc3c2Cl)s1`, the IC50 in assay [6] was 3.78 µM (active). In addition, the AC50 (as a rule, the concentration at which the activity in the assay is half-maximal) in assay [7] is > 52 µM (inactive). In addition, the EC50 (in assay [8]; in “cells”) was > 67.5 µM (inactive) in each case.

Take `O=C1NC(=S)SC1=C1C(=O)Nc2ccc(Br)cc21`: the inhibition constant Ki (in general, the dissociation constant of the complex between target and ligand, obtained from inhibition or displacement) was 3.16 µM (active) in assay [9]; > 1.58 µM (inactive) in assay [10]; 3.16 µM (active) in assay [11]; 6.31 µM (active) in [12]; 200 nM (active) in assay [13]; > 7.94 µM (inactive) in [14]. The inhibition constant Ki in assay [15] was 63.1 nM (active); in [16], 2.51 µM (active); in [17] it was 316 nM (active); in [18] it was 5.01 µM (active); in assay [19], 794 nM (active); in assay [20] it was > 7.94 µM (inactive). For the same molecule, the Ki in assay [21] was > 7.94 µM (inactive); in [22], > 1.58 µM (inactive); in assay [23], > 10 µM (inactive); in [24], 1 µM (active); in assay [25], 2 µM (active).

`Cc1ccc(Nc2cc(C)nn2-c2nc(C)cc(O)n2)cc1`: the EC50 in assay [26] is > 49.7 µM (not active); in assay [27] it was 1.76 µM (inconclusive); with BJ [28], 549 nM (active); in the assay with BJ [29] it was 2.94 µM (inconclusive).
